According to patent US4490370A, “Naphthylglycyl cephalosporin derivatives” (priority 1983, dated 1984):
Values after ≈ are worked out from the molar mass of the structure shown. Read-outs that look alike come from different tables or passages of the source.

Assays:
B. Fragilis = assay: Expanded spectrum MIC, B. Fragilis; type: cell-based; settings: Bacteroides fragilis, Table III
From the text: (§1) A typical and preferred compound provided by this invention is 7-(2-naphthylglycylamido)-3-methyl-3-cephem-4-carboxylic acid, the compound of Example 3. The antibacterial activity of this compound and several others of the invention has been determined in standard in vitro agar dilution assays against a variety of gram positive microorganisms. The following Tables present typical minimum inhibitory concentrations (MIC's) in μg/ml for the compounds when evaluated against the indicated microorganisms. MIC's for several known compounds are also presented for comparison.

[1] = system: β-lactamase (organism 265A); assay: Stability to β-lactamases, 265A; type: biochemical; settings: lower numbers mean greater stability
β-lactamase (TEM) = assay: Stability to β-lactamases, TEM; type: biochemical; settings: lower numbers mean greater stability
[2] = system: β-lactamase (organism 1082E); assay: Stability to β-lactamases, 1082E; type: biochemical; settings: lower numbers mean greater stability
Staph. aureus = assay: Agar dilution MIC, Staph. aureus; type: cell-based; settings: Staphylococcus aureus, Table III, read-out: MIC
From the text: (§2) The following Tables present typical minimum inhibitory concentrations (MIC's) in μg/ml for the compounds when evaluated against the indicated microorganisms.

[3] = system: β-lactamase (organism PS185); assay: Stability to β-lactamases, PS185; type: biochemical; settings: lower numbers mean greater stability
[4] = system: β-lactamase (organism 1313G); assay: Stability to β-lactamases, 1313G; type: biochemical; settings: lower numbers mean greater stability
H. influ. = assay: Agar dilution MIC, H. influenza; type: cell-based; settings: Table III, read-out: MIC
From the text: as §2

Propionibacterum acnes = assay: Susceptibility of anaerobes, agar-dilution, 24 hour MIC; type: cell-based
From the text: as §1
(§3) Susceptibility of Anaerobic Cocci
(§4) Isolates by the Agar-Dilution
(§5) Method-24 hour MIC's (μg/ml)

Bacteroides fragilis = assay: as above; type: cell-based
P. prevoti = assay: Susceptibility of anaerobic cocci, agar-dilution, 24 hour MIC; type: cell-based; settings: isolate 1293
From the text: as §1, §3, §4, §5

P. magnus = assay: as above; type: cell-based; settings: Finegoldia magna
From the text: as §1, §3, §4, §5

[5] = system: Peptococcus Asaccharolyticus; assay: as above; type: cell-based; settings: Peptoniphilus asaccharolyticus, isolate 1344
From the text: as §1, §3, §4, §5

Peptococcus Constellatus = assay: as above; type: cell-based; settings: Streptococcus constellatus, isolate 1468
From the text: as §1, §3, §4, §5

[6] = system: Peptostreptococcus anaerobius; assay: as above; type: cell-based
From the text: as §1, §3, §4, §5

[7] = system: Peptostreptococcus intermedius; assay: as above; type: cell-based
From the text: as §1, §3, §4, §5

N[C@@H](C(=O)N[C@@H]1C(=O)N2C(C(=O)O)=C(Cl)CS[C@H]12)c1ccccc1 [Cefaclor, 7-phenylglycylamido-3-chloro-3-cephem-4-carboxylic acid, reference compound]
MIC (B. Fragilis; strain 180-821): 64 µg/mL (≈ 174 µM)
MIC (B. Fragilis; strain 10668): 64 µg/mL (≈ 174 µM)
MIC (B. Fragilis; strain 10683): 16 µg/mL (≈ 43.5 µM)
MIC (B. Fragilis; strain 10695): 32 µg/mL (≈ 87 µM)
MIC (B. Fragilis; strain 10750): > 64 µg/mL
MIC (B. Fragilis; strain 10774): > 64 µg/mL
MIC (B. Fragilis; strain 10817): 64 µg/mL (≈ 174 µM)
MIC (B. Fragilis; strain 10837): > 64 µg/mL
MIC (B. Fragilis; strain 107266): 16 µg/mL (≈ 43.5 µM)
MIC (B. Fragilis; strain 107268): 16 µg/mL (≈ 43.5 µM)
Stability to β-lactamases [1]: 138
Stability to β-lactamases (β-lactamase (TEM)): 23
Stability to β-lactamases [2]: 65
MIC (Staph. aureus; strain 8438): 1 µg/mL (≈ 2.72 µM)
MIC (Staph. aureus; strain 9050): 2 µg/mL (≈ 5.44 µM)
MIC (Staph. aureus; strain 9136): 2 µg/mL (≈ 5.44 µM)
MIC (Staph. aureus; strain 9290): 8 µg/mL (≈ 21.8 µM)
MIC (Staph. aureus; strain 9767): 2 µg/mL (≈ 5.44 µM)
Stability to β-lactamases [3]: 71
Stability to β-lactamases [4]: 4605
MIC (H. influ.; strain 101): 2 µg/mL (≈ 5.44 µM)
MIC (H. influ.; strain 102): 16 µg/mL (≈ 43.5 µM)
MIC (H. influ.; strain 103): 2 µg/mL (≈ 5.44 µM)
MIC (H. influ.; strain 104): 1 µg/mL (≈ 2.72 µM)
MIC (H. influ.; strain 105): 1 µg/mL (≈ 2.72 µM)
MIC (H. influ.; strain 106): 2 µg/mL (≈ 5.44 µM)
MIC (H. influ.; strain 107): 2 µg/mL (≈ 5.44 µM)
MIC (H. influ.; strain 108): 1 µg/mL (≈ 2.72 µM)
MIC (H. influ.; strain 109): 2 µg/mL (≈ 5.44 µM)
MIC (H. influ.; strain 110): 1 µg/mL (≈ 2.72 µM)
MIC (H. influ.; strain 111): 1 µg/mL (≈ 2.72 µM)

CO[C@@]1(NC(=O)Cc2cccs2)C(=O)N2C(C(=O)O)=C(COC(N)=O)CS[C@@H]21 [Cefoxitin, reference compound]
MIC (Propionibacterum acnes; isolate 44): 2 µg/mL (≈ 4.68 µM)
MIC (Propionibacterum acnes; isolate 79): 8 µg/mL (≈ 18.7 µM)
MIC (Propionibacterum acnes; isolate 101): 4 µg/mL (≈ 9.36 µM)
MIC (Propionibacterum acnes; isolate 104): 4 µg/mL (≈ 9.36 µM)
MIC (Propionibacterum acnes; isolate 105): 2 µg/mL (≈ 4.68 µM)
MIC (Propionibacterum acnes; isolate 5191): ≤ 0.06 µg/mL
MIC (Propionibacterum acnes; isolate 5227): 2 µg/mL (≈ 4.68 µM)
MIC (Propionibacterum acnes; isolate 5228): 4 µg/mL (≈ 9.36 µM)
MIC (Propionibacterum acnes; isolate 5229): 2 µg/mL (≈ 4.68 µM)
MIC (Propionibacterum acnes; isolate 5246): 4 µg/mL (≈ 9.36 µM)
MIC (Bacteroides fragilis; isolate 200): 8 µg/mL (≈ 18.7 µM)
MIC (Bacteroides fragilis; isolate 206): 16 µg/mL (≈ 37.4 µM)
MIC (Bacteroides fragilis; isolate 3625): 16 µg/mL (≈ 37.4 µM)
MIC (Bacteroides fragilis; isolate 7371A): 8 µg/mL (≈ 18.7 µM)
MIC (Bacteroides fragilis; isolate 19671): 16 µg/mL (≈ 37.4 µM)
MIC (Bacteroides fragilis; isolate 19681): 32 µg/mL (≈ 74.9 µM)
MIC (P. prevoti): 1 µg/mL (≈ 2.34 µM)
MIC (P. magnus; isolate 1401): 2 µg/mL (≈ 4.68 µM)
MIC (P. magnus; isolate 1477): 0.5 µg/mL (≈ 1.17 µM)
MIC [5]: 0.25 µg/mL (≈ 0.585 µM)
MIC (Peptococcus Constellatus): 8 µg/mL (≈ 18.7 µM)
MIC ([6]; isolate 8): 0.25 µg/mL (≈ 0.585 µM)
MIC ([6]; isolate 52): 2 µg/mL (≈ 4.68 µM)
MIC ([6]; isolate 1477): 1 µg/mL (≈ 2.34 µM)
MIC ([7]; isolate 1264): 1 µg/mL (≈ 2.34 µM)
MIC ([7]; isolate 1524): 4 µg/mL (≈ 9.36 µM)
MIC ([7]; isolate 1624): 4 µg/mL (≈ 9.36 µM)
